Assays:
Type in all cases: cell-based
[1] = system: IL-6 stimulated STAT3 phosphorylation in CD3+ T cells; assay: Cellular JAK potency assay: inhibition of IL-6 stimulated pSTAT3 in CD3+ T cells; conditions: T-cell; CD3+ T cells in human PBMCs; read-out: pIC50, inhibition of IL-6 stimulated pSTAT3 (converted)
From the text: Assay 11: Cellular JAK Potency Assay: Inhibition of IL-6 Stimulated pSTAT3 in CD3+ T Cells
A protocol analogous to that of Assay 10 was used to determine the potency of the test compound for inhibition of interleuken-6 (IL-6) stimulated STAT3 phosphorylation. An Alexa Fluor 647 conjugated anti-pSTAT3 antibody (pY705, Clone 4/P, BD Biosciences) was used to detect STAT3 phosphorylation.

[2] = system: IL-2/anti-CD3 stimulated STAT5 phosphorylation in CD4+ T cells; assay: Cellular JAK potency assay: inhibition of IL-2 stimulated pSTAT5 in CD4+ T cells; conditions: 0.5 h; CD4+ T cells in human PBMCs, 30 min stimulation; read-out: pIC50, inhibition of IL-2 stimulated pSTAT5 (converted)
Description: Assay 9: Cellular JAK Potency Assay: Inhibition of IL-2 Stimulated pSTAT5 in CD4+ T Cells
The potency of the test compound for inhibition of interleukin-2 (IL-2)/anti-CD3 stimulated STAT5 phosphorylation was measured in CD4-positive (CD4+) T cells in human peripheral blood mononuclear cells (PBMCs) isolated from human whole blood (Stanford Blood Center) using flow cytometry. Because IL-2 signals through JAK, this assay provides a measure of JAK cellular potency. […]
(2) After cytokine stimulation, cells were fixed with pre warmed fix solution (200 μL; BD Biosciences) for 10 min at 37° C., 5% CO2, washed twice with DPBS buffer (1 mL, Life Technologies), and resuspended in ice cold Perm Buffer III (1000 μL, BD Biosciences) for 30 min at 4° C. […] After incubation, cells were washed twice in FACS buffer before being analyzed using a LSRII flow cytometer (BD Biosciences). To determine the inhibitory potency of test compounds in response to IL-2/anti-CD3, the median fluorescent intensity (MFI) of pSTAT5 was measured in CD4+ T cells. IC50 values were determined from analysis of the inhibition curves of MFI vs compound concentration. Data are expressed as pIC50 (negative decadic logarithm IC50) values.

[3] = system: IL-4 stimulated STAT6 phosphorylation in CD3+ T cells; assay: Cellular JAK potency assay: inhibition of IL-4 stimulated pSTAT6 in CD3+ T cells; conditions: T-cell; CD3+ T cells in human PBMCs; read-out: pIC50, inhibition of IL-4 stimulated pSTAT6 (converted)
Description: Assay 10: Cellular JAK Potency Assay: Inhibition of IL-4 Stimulated pSTAT6 in CD3+ T Cells
The potency of the test compound for inhibition of interleukin-4 (IL-4) stimulated STAT6 phosphorylation was measured in CD3-positive (CD3+) T cells in human peripheral blood mononuclear cells (PBMCs) isolated from human whole blood (Stanford Blood Center) using flow cytometry. Because IL-4 signals through JAK, this assay provides a measure of JAK cellular potency.
CD3+ T cells were identified using a […] (PE) conjugated anti-CD3 antibody (Clone UCHT1, BD Biosciences), while an Alexa Fluor 647 conjugated anti-pSTAT6 antibody (pY641, Clone 18/P, BD Biosciences) was used to detect STAT6 phosphorylation.
Human peripheral blood mononuclear cells (PBMC) were isolated from human whole blood of healthy donors as in Assays 8 and 9. […] After incubation, cells were washed twice in FACS buffer before being analyzed using a LSRII flow cytometer (BD Biosciences).
To determine the inhibitory potency of the test compound in response to IL-4, the median fluorescent intensity (MFI) of pSTAT6 was measured in CD3+ T cells. IC50 values were determined from analysis of the inhibition curves of MFI vs compound concentration. Data are expressed as pIC50 (negative decadic logarithm IC50).

[4] = system: IL-2/anti-CD3 stimulated IFNγ in human PBMCs; assay: Cellular JAK potency assay: inhibition of IL-2/anti-CD3 stimulated IFNγ in human PBMCs; conditions: PBMC, 24 h stimulation, read-out: pIC50, inhibition of IL-2/anti-CD3 stimulated IFNγ (converted)
From the text: Data are expressed as pIC50 (negative decadic logarithm IC50) values.

Question: How did the IC50 [1] turn out when CCc1cc(O)c(F)cc1-c1ccc2c(-c3nc4c([nH]3)CN(C(C)C)[C@H](C(=O)N3CC(N(C)C)C3)C4)n[nH]c2c1 [Example 2, (S)-(3-(dimethylamino)azetidin-1-yl)(2-(6-(2-ethyl-5-fluoro-4-hydroxyphenyl)-1H-indazol-3-yl)-5-isopropyl-4,5,6,7-tetrahydro-3H-imidazo[4,5-c]pyridin-6-yl)methanone] was run?
Answer: 63.1 nM

Question: What about the IC50 [2] of the same compound?
Answer: ~50.1 nM

Question: What about the IC50 [3] of the same compound?
Answer: 12.6 nM

Question: What about the IC50 [4] of the same compound?
Answer: ~79.4 nM

Reference: US10196393B2, “JAK inhibitors containing a 4-membered heterocyclic amide” (THERAVANCE BIOPHARMA R&D IP, LLC, priority 2017, dated 2019)
